# Measured values reported in PubChem BioAssay AID2060600 (Molecular Pharmacology Branch, DTP, NCI, 2025).
# Test system: 996289-038-R-J1-PDC complex spheroid viability
# Assay: Anticancer human tumor 996289-038-R-J1-PDC patient-derived colon adenocarcinoma cell line growth inhibition [CLK]
# Conditions: for IC50: curve of first compound; for viability, T/C: stronger effect = lower value
# Source text: A high-throughput screen of multi-cell type tumor spheroids was designed to identify active combinations of […] and targeted small molecules. Complex spheroids include a stromal component modeled by human endothelial cells (HUVEC) and fibroblasts modeled by human mesenchymal stem cells (MSCs). The concentration ranges selected for each drug and investigational agent were based upon clinically achievable concentrations if the clinical Cmax of the agent was known.
# Compounds. The drugs and investigational agents: cirtuvivint (SM08502; NSC835563), CC-671 (NSC850746), vemurafenib (NSC761431), tapotoclax (NSC804041), sotorasib (NSC818433), adagrasib (NSC831453), MRTX-1133 (NSC836407), BAY2416964 (NSC825713), copanlisib (NSC816437), inavolisib (NSC800729), abemaciclib (NSC768073), osimertinib (NSC779217), entinostat (NSC756642), eltanexor (KPT-8602, NSC794443), venetoclax (NSC766270), ceralasertib (NSC777638), bortezomib (NSC756655), olaparib (NSC753686), talazoparib (NSC767125), alisertib (NSC759677), peposertib (NSC802822), gemcitabine (NSC613327), 5-fluorouracil (NSC19893), SN-38 (NSC673596), oxaliplatin (NSC266046), paclitaxel (NSC125973), and doxorubicin (NSC123127), were obtained from the National Cancer Institute (NCI) Developmental Therapeutics Program Chemical Repository. The FDA-approved anticancer drug set is available from the Developmental Therapeutics Program at https://dtp.cancer.gov/organization/dscb/obtaining/available plates.htm. […] The stock solutions were prepared in dimethyl sulfoxide (DMSO, Sigma-Aldrich, St. Louis, MO, cat. D2650), except for the platinum complexes which were prepared in saline (Quality Biological, Gaithersburg, MD, cat. 114-055-101), at 800-fold the tested concentration and stored at -70 degrees C prior to their use. All drugs and investigational agents were tested over a range starting from a high concentration at or near the clinical Cmax and decreasing in half-log increments. If the clinical Cmax for an agent had not been determined, the highest concentration tested was 10 microM.
# Cell Culture. All cells were maintained in an incubator at 37 degrees C and 5% CO2 with 95% humidity. The PDC lines were cultured according to standard operating procedures established by the NCI PDMR. Briefly, all PDCs were thawed and cultured in Matrigel-coated flasks prepared with a working solution of 1X Ham's F-12 nutrient mix, without supplementation (Invitrogen, Waltham, MA, cat. 11765054), 100 U/mL penicillin-streptomycin (Invitrogen, cat. 15140122), and 2.5% Matrigel (Corning Inc., Corning, NY, cat. 354248) for the first three passages. The 947758-054-R-J2-PDC line was cultured in 6B/Colon 1A media, which includes advanced DMEM/F-12 (Thermo Fisher Scientific, cat. 12634028), 10 mM HEPES (Thermo Fisher Scientific, cat. 15630080), 1X GlutaMAX supplement (Thermo Fisher Scientific, cat. 35050061), 0.1 mg/mL primocin (InvivoGen, cat. ant-pm-2), 10% defined fetal bovine serum, heat inactivated (HyClone Laboratories Inc., cat. SH30070.03HI), 1.25 mM N-Acetyl-L-cysteine (Sigma-Aldrich, cat. A9165), 10 mM nicotinamide (Sigma-Aldrich, cat. N0636), 1X B-27 supplement (Thermo Fisher Scientific, cat. 17504044), 1X N-2 supplement (Thermo Fisher Scientific, cat. 17502048), and 10 microM Y-27632 dihydrochloride (Tocris Bioscience, cat. 1254). The 876862-298-R-J1-PDC was cultured in 6E media, which includes all 6B/Colon 1A media components plus 50% L-WRN conditioned media (ATCC, cat. CRL-3276), 50 ng/mL recombinant human EGF recombinant protein (hEGF; Thermo Fisher Scientific, cat. PHG0311), 10 ng/mL recombinant human fibroblast growth factor 10 (hGFG-10; PeproTech, cat. 100-26), 1 ng/mL recombinant human fibroblast growth factor 2 (hFGF-2; PeproTech, cat. 100-18B), and 1 µM prostaglandin E2 (PGE2; Tocris, cat. 2296). The 227483-062-R1-J1-PDC line was cultured in Panc media, containing all 6E components except hFGF-2, with the addition of 500 nM SB-431542 (Selleckchem, cat. S1067) and 10 nM gastrin (Tocris, cat. 3006). […]
# [1] = second compound 0.0316 µM, first compound 0.0316 µM
# [2] = second compound 0.0316 µM, first compound 0.1 µM
# [3] = second compound 0.0316 µM, first compound 0.316 µM
# [4] = second compound 0.0316 µM, first compound 1 µM
# [5] = second compound 0.0316 µM, first compound 3.16 µM
# [6] = second compound 0.0316 µM, first compound 10 µM
# [7] = second compound 0.1 µM, first compound 0.0316 µM
# [8] = second compound 0.1 µM, first compound 0.1 µM
# [9] = second compound 0.1 µM, first compound 0.316 µM
# [10] = second compound 0.1 µM, first compound 1 µM
# [11] = second compound 0.1 µM, first compound 3.16 µM
# [12] = second compound 0.1 µM, first compound 10 µM
# [13] = second compound 0.316 µM, first compound 0.0316 µM
# [14] = second compound 0.316 µM, first compound 0.1 µM
# [15] = second compound 0.316 µM, first compound 0.316 µM
# [16] = second compound 0.316 µM, first compound 1 µM
# [17] = second compound 0.316 µM, first compound 3.16 µM
# [18] = second compound 0.316 µM, first compound 10 µM
# [19] = second compound 1 µM, first compound 0.0316 µM
# [20] = second compound 1 µM, first compound 0.1 µM
# [21] = second compound 1 µM, first compound 0.316 µM
# [22] = second compound 1 µM, first compound 1 µM
# [23] = second compound 1 µM, first compound 3.16 µM
# [24] = second compound 1 µM, first compound 10 µM
# [25] = second compound 3.16 µM, first compound 0.0316 µM
# [26] = second compound 3.16 µM, first compound 0.1 µM
# [27] = second compound 3.16 µM, first compound 0.316 µM
# [28] = second compound 3.16 µM, first compound 1 µM
# [29] = second compound 3.16 µM, first compound 3.16 µM
# [30] = second compound 3.16 µM, first compound 10 µM
# [31] = second compound 10 µM, first compound 0.0316 µM
# [32] = second compound 10 µM, first compound 0.1 µM
# [33] = second compound 10 µM, first compound 0.316 µM
# [34] = second compound 10 µM, first compound 1 µM
# [35] = second compound 10 µM, first compound 3.16 µM
# [36] = second compound 10 µM, first compound 10 µM
# 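Note: spheroids exposed to the agents for 7 days before readout.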
smiles,measurement,setting,value
C#Cc1c(F)ccc2cc(O)cc(-c3ncc4c(N5CC6CCC(C5)N6)nc(OCC56CCCN5CC(F)C6)nc4c3F)c12 (stereo unspecified) + CN1CCN(c2cc(C(=O)Nc3cc4cc(-c5cnn(C)c5)ccc4cn3)ccn2)CC1,IC50,second compound 0.0316 µM,965 nM
same,IC50,second compound 0.1 µM,589 nM
same,IC50,second compound 0.316 µM,92.3 nM
same,IC50,second compound 1 µM,< 31.6 nM
same,IC50,second compound 3.16 µM,< 31.6 nM
same,IC50,second compound 10 µM,< 31.6 nM
same,"viability, T/C",[1],102%
same,"viability, T/C",[2],92.2%
same,"viability, T/C",[3],64.3%
same,"viability, T/C",[4],52.9%
same,"viability, T/C",[5],34.8%
same,"viability, T/C",[6],28.4%
same,"viability, T/C",[7],85.5%
same,"viability, T/C",[8],71.2%
same,"viability, T/C",[9],58.1%
same,"viability, T/C",[10],45%
same,"viability, T/C",[11],28.6%
same,"viability, T/C",[12],22.2%
same,"viability, T/C",[13],58.7%
same,"viability, T/C",[14],50.2%
same,"viability, T/C",[15],35.9%
same,"viability, T/C",[16],26.7%
same,"viability, T/C",[17],20.7%
same,"viability, T/C",[18],16.6%
same,"viability, T/C",[19],4.83%
same,"viability, T/C",[20],4.1%
same,"viability, T/C",[21],3.5%
same,"viability, T/C",[22],2.81%
same,"viability, T/C",[23],2.14%
same,"viability, T/C",[24],2.96%
same,"viability, T/C",[25],1.47%
same,"viability, T/C",[26],1.31%
same,"viability, T/C",[27],1.59%
same,"viability, T/C",[28],0.95%
same,"viability, T/C",[29],0.67%
same,"viability, T/C",[30],0.45%
same,"viability, T/C",[31],0.72%
same,"viability, T/C",[32],0.61%
same,"viability, T/C",[33],1.23%
same,"viability, T/C",[34],0.99%
same,"viability, T/C",[35],0.36%
same,"viability, T/C",[36],0.65%
C=C(F)C(=O)N1CCN(c2nc(OCC3CCCN3C)nc3c2CCN(c2cccc4cccc(Cl)c24)C3)CC1CC#N (stereo unspecified) + CN1CCN(c2cc(C(=O)Nc3cc4cc(-c5cnn(C)c5)ccc4cn3)ccn2)CC1,IC50,second compound 0.0316 µM,4600 nM
same,IC50,second compound 0.1 µM,4410 nM
same,IC50,second compound 0.316 µM,2880 nM
same,IC50,second compound 1 µM,< 31.6 nM
same,IC50,second compound 3.16 µM,< 31.6 nM
same,IC50,second compound 10 µM,< 31.6 nM
same,"viability, T/C",[1],98.2%
same,"viability, T/C",[2],119%
same,"viability, T/C",[3],97.9%
same,"viability, T/C",[4],104%
same,"viability, T/C",[5],73.4%
same,"viability, T/C",[6],1.4%
same,"viability, T/C",[7],97.1%
same,"viability, T/C",[8],97.5%
same,"viability, T/C",[9],101%
same,"viability, T/C",[10],95.5%
same,"viability, T/C",[11],70.1%
same,"viability, T/C",[12],0.64%
same,"viability, T/C",[13],66.5%
same,"viability, T/C",[14],79.6%
same,"viability, T/C",[15],70.9%
same,"viability, T/C",[16],64.8%
same,"viability, T/C",[17],48.9%
same,"viability, T/C",[18],0.51%
same,"viability, T/C",[19],6.67%
same,"viability, T/C",[20],6.95%
same,"viability, T/C",[21],6.76%
same,"viability, T/C",[22],6.89%
same,"viability, T/C",[23],1.53%
same,"viability, T/C",[24],0.54%
same,"viability, T/C",[25],0.79%
same,"viability, T/C",[26],0.78%
same,"viability, T/C",[27],1.18%
same,"viability, T/C",[28],0.87%
same,"viability, T/C",[29],1.8%
same,"viability, T/C",[30],0.29%
same,"viability, T/C",[31],0.4%
same,"viability, T/C",[32],0.7%
same,"viability, T/C",[33],1.4%
same,"viability, T/C",[34],0.36%
same,"viability, T/C",[35],0.43%
same,"viability, T/C",[36],0.8%
CC(CO)NC(=O)c1cc(-c2ccc(Cl)cc2)nn(-c2cnn(C)c2)c1=O (stereo unspecified) + CN1CCN(c2cc(C(=O)Nc3cc4cc(-c5cnn(C)c5)ccc4cn3)ccn2)CC1,IC50,second compound 0.0316 µM,> 10000 nM
same,IC50,second compound 0.1 µM,> 10000 nM
same,IC50,second compound 0.316 µM,8010 nM
same,IC50,second compound 1 µM,< 31.6 nM
same,IC50,second compound 3.16 µM,< 31.6 nM
same,IC50,second compound 10 µM,< 31.6 nM
same,"viability, T/C",[1],105%
same,"viability, T/C",[2],96.2%
same,"viability, T/C",[3],95.3%
same,"viability, T/C",[4],107%
same,"viability, T/C",[5],102%
same,"viability, T/C",[6],82.3%
same,"viability, T/C",[7],107%
same,"viability, T/C",[8],104%
same,"viability, T/C",[9],89.8%
same,"viability, T/C",[10],83.9%
same,"viability, T/C",[11],84.9%
same,"viability, T/C",[12],66.9%
same,"viability, T/C",[13],75%
same,"viability, T/C",[14],70.2%
same,"viability, T/C",[15],67.3%
same,"viability, T/C",[16],68.4%
same,"viability, T/C",[17],69.2%
same,"viability, T/C",[18],45.5%
same,"viability, T/C",[19],8.41%
same,"viability, T/C",[20],6.34%
same,"viability, T/C",[21],6.26%
same,"viability, T/C",[22],6.91%
same,"viability, T/C",[23],6.32%
same,"viability, T/C",[24],4.74%
same,"viability, T/C",[25],1.59%
same,"viability, T/C",[26],0.78%
same,"viability, T/C",[27],2.09%
same,"viability, T/C",[28],2.22%
same,"viability, T/C",[29],0.69%
same,"viability, T/C",[30],1.38%
same,"viability, T/C",[31],1.12%
same,"viability, T/C",[32],0.98%
same,"viability, T/C",[33],0.62%
same,"viability, T/C",[34],0.94%
same,"viability, T/C",[35],0.67%
same,"viability, T/C",[36],0.38%
